What follows are molecules tested on HCV pseudoparticles (genotype 1a HCV E1 and E2 envelope, H77C isolate) (assay: microbe, parasite or virus in culture). Conditions: Hepatitis C virus, Huh-7, 48 h, HCV pseudoparticles (genotype 1a, H77C) in Huh7 cells; average of duplicate; luciferase 2 days after infection.
Assay type: cell-based

Structure (SMILES)	EC50 [nM]
O=C(NCCNC(=O)c1ccc(Nc2nc(NC3(c4ccc(Cl)cc4)CC3)nc(OCC(F)(F)F)n2)cc1)C(=O)Nc1ccc(F)cc1 [Compound 3373]	0.052
Cn1ccnc1NC(=O)C(=O)NCC(C)(C)CNC(=O)c1ccc(Nc2nc(NC3(c4ccc(Cl)cc4)CC3)nc(OCC(F)(F)F)n2)cc1 [Compound 3379]	0.14
COc1cc(Nc2nc(NC3(c4ccc(Cl)cc4)CC3)nc(OCC(F)(F)F)n2)ccc1C(=O)NCC(C)(C)CNC(=O)C(N)=O [Compound 3387]	0.068
CC(C)(CNC(=O)C(N)=O)CNC(=O)c1ccc(Nc2nc(NC3(c4ccc(Cl)cc4)CC3)nc(OCC(F)(F)F)n2)cc1F [Compound 3388, N^1-(3-(4-((4-((1-(4-chlorophenyl)cyclopropyl)amino)-6-(2,2,2-trifluoroethoxy)-1,3,5-triazin-2-yl)amino)-2-fluorobenzamido)-2,2-dimethylpropyl)oxalamide]	0.013
O=C(NCCCCNC(=O)c1ccc(Nc2nc(NC3(c4ccc(Cl)cc4)CC3)nc(OCC(F)(F)F)n2)cc1)C(=O)Nc1ccc(F)cc1F [Compound 3397]	0.082
O=C(NCCCCNC(=O)c1ccc(Nc2nc(NC3(c4ccc(Cl)cc4)CC3)nc(OCC(F)(F)F)n2)cc1)C(=O)N1CCc2ccccc2C1 [Compound 3402]	0.2
Cc1ccc(NC(=O)C(=O)N(C)CCCN(C)C(=O)c2ccc(Nc3nc(NC4(c5ccc(Cl)cc5)CC4)nc(OCC(F)(F)F)n3)cc2)cc1 [Compound 3406]	1.91
Cc1ccc(NC(=O)C(=O)NC(C)(C)CNC(=O)c2ccc(Nc3nc(NC4(c5ccc(Cl)cc5)CC4)nc(OCC(F)(F)F)n3)cc2)cc1 [Compound 3417]	0.032

Same assay, conditions: Hepatitis C virus, Huh-7, read-out: Activity (EC50 class), HCV pseudoparticles (genotype 1a, H77C) in Huh7 cells; EC50 expressed as class A/B

Structure (SMILES)	EC50 [nM]
O=C(NCCNC(=O)c1ccc(Nc2nc(NC3(c4ccc(Cl)cc4)CC3)nc(OCC(F)(F)F)n2)cc1)C(=O)Nc1cccc(F)c1 [Compound 3369]	0.01 to 10
O=C(NCCNC(=O)c1ccc(Nc2nc(NC3(c4ccc(Cl)cc4)CC3)nc(OCC(F)(F)F)n2)cc1)C(=O)NCc1ccc(F)cc1 [Compound 3370]	0.01 to 10
Cc1ccc(NC(=O)C(=O)NCCNC(=O)c2ccc(Nc3nc(NC4(c5ccc(Cl)cc5)CC4)nc(OCC(F)(F)F)n3)cc2)cc1 [Compound 3371]	0.01 to 10
Cc1cc(NC(=O)C(=O)NCCNC(=O)c2ccc(Nc3nc(NC4(c5ccc(Cl)cc5)CC4)nc(OCC(F)(F)F)n3)cc2)no1 [Compound 3372]	0.01 to 10
O=C(NCCNC(=O)c1ccc(Nc2nc(NC3(c4ccc(Cl)cc4)CC3)nc(OCC(F)(F)F)n2)cc1)C(=O)Nc1ccc(F)cc1 [Compound 3373]	0.01 to 10
CC(C)(CNC(=O)C(=O)Nc1ccc(C#N)c(Cl)c1)CNC(=O)c1ccc(Nc2nc(NC3(c4ccc(Cl)cc4)CC3)nc(OCC(F)(F)F)n2)cc1 [Compound 3374]	0.01 to 10
CC(C)(CNC(=O)C(=O)Nc1ccccc1C(N)=O)CNC(=O)c1ccc(Nc2nc(NC3(c4ccc(Cl)cc4)CC3)nc(OCC(F)(F)F)n2)cc1 [Compound 3375]	0.01 to 10
CC(C)(CNC(=O)C(=O)Nc1nc2ccccc2s1)CNC(=O)c1ccc(Nc2nc(NC3(c4ccc(Cl)cc4)CC3)nc(OCC(F)(F)F)n2)cc1 [Compound 3376]	0.01 to 10
CC(=O)c1ccccc1NC(=O)C(=O)NCC(C)(C)CNC(=O)c1ccc(Nc2nc(NC3(c4ccc(Cl)cc4)CC3)nc(OCC(F)(F)F)n2)cc1 [Compound 3377]	0.01 to 10
Cc1ccc(NC(=O)C(=O)NCC(C)(C)CNC(=O)c2ccc(Nc3nc(NC4(c5ccc(Cl)cc5)CC4)nc(OCC(F)(F)F)n3)cc2)c(Cl)c1 [Compound 3378]	0.01 to 10
Cn1ccnc1NC(=O)C(=O)NCC(C)(C)CNC(=O)c1ccc(Nc2nc(NC3(c4ccc(Cl)cc4)CC3)nc(OCC(F)(F)F)n2)cc1 [Compound 3379]	0.01 to 10
NC(=O)C(=O)NCCNC(=O)c1ccc(Nc2nc(NC3(c4ccc(Cl)cc4)CC3)nc(OCC(F)(F)F)n2)cc1 [Compound 3380]	0.01 to 10
CC(C)(CNC(=O)C(=O)N1CCOCC1)CNC(=O)c1ccc(Nc2nc(NC3(c4ccc(Cl)cc4)CC3)nc(OCC(F)(F)F)n2)cc1 [Compound 3381]	0.01 to 10
CC(C)(CNC(=O)C(=O)Nc1nncs1)CNC(=O)c1ccc(Nc2nc(NC3(c4ccc(Cl)cc4)CC3)nc(OCC(F)(F)F)n2)cc1 [Compound 3382]	0.01 to 10
CC(C)(CNC(=O)C(=O)Nc1ccc(C#N)cc1F)CNC(=O)c1ccc(Nc2nc(NC3(c4ccc(Cl)cc4)CC3)nc(OCC(F)(F)F)n2)cc1 [Compound 3383]	0.01 to 10
CC(C)(CNC(=O)C(=O)Nc1ccc(Cl)cc1C#N)CNC(=O)c1ccc(Nc2nc(NC3(c4ccc(Cl)cc4)CC3)nc(OCC(F)(F)F)n2)cc1 [Compound 3384]	0.01 to 10
CC(C)(CNC(=O)C(=O)Nc1ccccc1C#N)CNC(=O)c1ccc(Nc2nc(NC3(c4ccc(Cl)cc4)CC3)nc(OCC(F)(F)F)n2)cc1 [Compound 3385]	0.01 to 10
CC(C)(CNC(=O)C(N)=O)CNC(=O)c1ccc(Nc2nc(NC3(c4ccc(Cl)cc4)CC3)nc(OCC(F)(F)F)n2)c(F)c1 [Compound 3386]	0.01 to 10
COc1cc(Nc2nc(NC3(c4ccc(Cl)cc4)CC3)nc(OCC(F)(F)F)n2)ccc1C(=O)NCC(C)(C)CNC(=O)C(N)=O [Compound 3387]	0.01 to 10
CC(C)(CNC(=O)C(N)=O)CNC(=O)c1ccc(Nc2nc(NC3(c4ccc(Cl)cc4)CC3)nc(OCC(F)(F)F)n2)cc1F [Compound 3388, N^1-(3-(4-((4-((1-(4-chlorophenyl)cyclopropyl)amino)-6-(2,2,2-trifluoroethoxy)-1,3,5-triazin-2-yl)amino)-2-fluorobenzamido)-2,2-dimethylpropyl)oxalamide]	0.01 to 10
CC(C)(CNC(=O)C(N)=O)CNC(=O)c1ccc(Nc2nc(NC3(c4ccc(Cl)cc4)CC3)nc(OCC(F)(F)F)n2)cc1O [Compound 3389]	0.01 to 10
O=C(NCCCCNC(=O)c1ccc(Nc2nc(NC3(c4ccc(Cl)cc4)CC3)nc(OCC(F)(F)F)n2)cc1)C(=O)Nc1cccc(F)c1 [Compound 3390]	0.01 to 10
NC(=O)C(=O)NCCCCNC(=O)c1ccc(Nc2nc(NC3(c4ccc(Cl)cc4)CC3)nc(OCC(F)(F)F)n2)cc1 [Compound 3391]	0.01 to 10
O=C(NCCCCNC(=O)c1ccc(Nc2nc(NC3(c4ccc(Cl)cc4)CC3)nc(OCC(F)(F)F)n2)cc1)C(=O)NCc1ccc(F)cc1 [Compound 3392]	0.01 to 10
Cc1ccc(NC(=O)C(=O)NCCCCNC(=O)c2ccc(Nc3nc(NC4(c5ccc(Cl)cc5)CC4)nc(OCC(F)(F)F)n3)cc2)cc1 [Compound 3393]	0.01 to 10
Cc1cc(NC(=O)C(=O)NCCCCNC(=O)c2ccc(Nc3nc(NC4(c5ccc(Cl)cc5)CC4)nc(OCC(F)(F)F)n3)cc2)no1 [Compound 3394]	0.01 to 10
O=C(NCCCCNC(=O)c1ccc(Nc2nc(NC3(c4ccc(Cl)cc4)CC3)nc(OCC(F)(F)F)n2)cc1)C(=O)Nc1ccc(F)cc1 [Compound 3395]	0.01 to 10

Structure (SMILES)	EC50 [nM]
O=C(NCCCCNC(=O)c1ccc(Nc2nc(NC3(c4ccc(Cl)cc4)CC3)nc(OCC(F)(F)F)n2)cc1)C(=O)Nc1cc(F)cc(F)c1 [Compound 3396]	0.01 to 10
O=C(NCCCCNC(=O)c1ccc(Nc2nc(NC3(c4ccc(Cl)cc4)CC3)nc(OCC(F)(F)F)n2)cc1)C(=O)Nc1ccc(F)cc1F [Compound 3397]	0.01 to 10
O=C(NCCCCNC(=O)c1ccc(Nc2nc(NC3(c4ccc(Cl)cc4)CC3)nc(OCC(F)(F)F)n2)cc1)C(=O)NC1CCCCC1 [Compound 3398]	0.01 to 10
O=C(NCCCCNC(=O)c1ccc(Nc2nc(NC3(c4ccc(Cl)cc4)CC3)nc(OCC(F)(F)F)n2)cc1)C(=O)Nc1nccs1 [Compound 3399]	0.01 to 10
CC(C)(CNC(=O)C(=O)Nc1cccc(C(=O)c2cccc(N)c2)c1)CNC(=O)c1ccc(Nc2nc(NC3(c4ccc(Cl)cc4)CC3)nc(OCC(F)(F)F)n2)cc1 [Compound 3400]	0.01 to 10
O=C(NCCCCNC(=O)c1ccc(Nc2nc(NC3(c4ccc(Cl)cc4)CC3)nc(OCC(F)(F)F)n2)cc1)C(=O)N1CCCCC1 [Compound 3401]	0.01 to 10
O=C(NCCCCNC(=O)c1ccc(Nc2nc(NC3(c4ccc(Cl)cc4)CC3)nc(OCC(F)(F)F)n2)cc1)C(=O)N1CCc2ccccc2C1 [Compound 3402]	0.01 to 10
O=C(NCCCCNC(=O)c1ccc(Nc2nc(NC3(c4ccc(Cl)cc4)CC3)nc(OCC(F)(F)F)n2)cc1)C(=O)Nc1ccccc1 [Compound 3403]	0.01 to 10
CC(C)(CNC(=O)C(=O)NCc1ccc(C(=O)c2ccccc2)cc1)CNC(=O)c1ccc(Nc2nc(NC3(c4ccc(Cl)cc4)CC3)nc(OCC(F)(F)F)n2)cc1 [Compound 3404]	0.01 to 10
CC(C)(CNC(=O)C(=O)Nc1ccc(F)cc1Cl)CNC(=O)c1ccc(Nc2nc(NC3(c4ccc(Cl)cc4)CC3)nc(OCC(F)(F)F)n2)cc1 [Compound 3405]	0.01 to 10
Cc1ccc(NC(=O)C(=O)N(C)CCCN(C)C(=O)c2ccc(Nc3nc(NC4(c5ccc(Cl)cc5)CC4)nc(OCC(F)(F)F)n3)cc2)cc1 [Compound 3406]	0.01 to 10
CCOC(=O)/C=C/c1cccc(NC(=O)C(=O)NCC(C)(C)CNC(=O)c2ccc(Nc3nc(NC4(c5ccc(Cl)cc5)CC4)nc(OCC(F)(F)F)n3)cc2)c1 [Compound 3407]	0.01 to 10
CC(C)(CNC(=O)C(=O)Nc1ccc(C(F)(F)F)cc1F)CNC(=O)c1ccc(Nc2nc(NC3(c4ccc(Cl)cc4)CC3)nc(OCC(F)(F)F)n2)cc1 [Compound 3409]	0.01 to 10
CN(CCCN(C)C(=O)c1ccc(Nc2nc(NC3(c4ccc(Cl)cc4)CC3)nc(OCC(F)(F)F)n2)cc1)C(=O)C(=O)Nc1cccc(F)c1 [Compound 3410]	0.01 to 10
CN(CCCN(C)C(=O)c1ccc(Nc2nc(NC3(c4ccc(Cl)cc4)CC3)nc(OCC(F)(F)F)n2)cc1)C(=O)C(N)=O [Compound 3411]	0.01 to 10
CN(CCCN(C)C(=O)c1ccc(Nc2nc(NC3(c4ccc(Cl)cc4)CC3)nc(OCC(F)(F)F)n2)cc1)C(=O)C(=O)Nc1ccc(F)cc1 [Compound 3412]	0.01 to 10
CN(CCCN(C)C(=O)c1ccc(Nc2nc(NC3(c4ccc(Cl)cc4)CC3)nc(OCC(F)(F)F)n2)cc1)C(=O)C(=O)NCc1ccc(F)cc1 [Compound 3413]	10 to 1000
CC(C)(CNC(=O)C(=O)Nc1c(F)cc(F)cc1F)CNC(=O)c1ccc(Nc2nc(NC3(c4ccc(Cl)cc4)CC3)nc(OCC(F)(F)F)n2)cc1 [Compound 3416]	0.01 to 10
Cc1ccc(NC(=O)C(=O)NC(C)(C)CNC(=O)c2ccc(Nc3nc(NC4(c5ccc(Cl)cc5)CC4)nc(OCC(F)(F)F)n3)cc2)cc1 [Compound 3417]	0.01 to 10
CC(C)(CNC(=O)c1ccc(Nc2nc(NC3(c4ccc(Cl)cc4)CC3)nc(OCC(F)(F)F)n2)cc1)NC(=O)C(=O)Nc1ccc(F)cc1 [Compound 3418]	0.01 to 10
CC(C)(CNC(=O)c1ccc(Nc2nc(NC3(c4ccc(Cl)cc4)CC3)nc(OCC(F)(F)F)n2)cc1)NC(=O)C(=O)NCc1ccc(F)cc1 [Compound 3419]	0.01 to 10
CC(C)(CNC(=O)c1ccc(Nc2nc(NC3(c4ccc(Cl)cc4)CC3)nc(OCC(F)(F)F)n2)cc1)NC(=O)C(N)=O [Compound 3420]	0.01 to 10
CC(C)(CNC(=O)c1ccc(Nc2nc(NC3(c4ccc(Cl)cc4)CC3)nc(OCC(F)(F)F)n2)cc1)NC(=O)C(=O)Nc1cccc(F)c1 [Compound 3421]	0.01 to 10
Cc1cc(NC(=O)C(=O)NC(C)(C)CNC(=O)c2ccc(Nc3nc(NC4(c5ccc(Cl)cc5)CC4)nc(OCC(F)(F)F)n3)cc2)no1 [Compound 3422]	0.01 to 10
Cc1cc(NC(=O)C(=O)N(C)CCCN(C)C(=O)c2ccc(Nc3nc(NC4(c5ccc(Cl)cc5)CC4)nc(OCC(F)(F)F)n3)cc2)no1 [Compound 3423]	0.01 to 10
CC(C)(CNC(=O)c1ccc(Nc2nc(NC3(c4ccc(Cl)cc4)CC3)nc(OCC(F)(F)F)n2)cc1)NC(=O)C(=O)Nc1cc(F)cc(F)c1 [Compound 3424]	0.01 to 10

Source: patent US8916702B2 (priority 2012, dated 2014)
